Assay results: patent US20240124465A1, “MOLECULES AND METHODS RELATED TO TREATMENT OF DISORDERS ASSOCIATED WITH JAK-2 SIGNALING DYSFUNCTION” (ST. JUDE CHILDREN'S RESEARCH HOSPITAL, priority 2020, published 2024)

How the values were obtained:
Assay type in all cases: cell-based
JAK2 = assay: Western blot assay, JAK2 protein degradation; details: MHH-CALL-4 cells, vehicle control = 100%
Method: (§1) Western blot assay: MHH-CALL-4 Cells were washed twice with ice-cold PBS and lysed in RIPA lysis buffer (Sigma) freshly supplemented with Halt™ Protease Inhibitor Cocktail (ThermoFisher) for 15 minutes on ice. The cell pellet was removed by centrifugation at 13,000 g at 4° C. for 15 minutes. Protein concentration was measured by BCA assay (Thermo Fisher Scientific). Proteins were denatured in NuPAGE LDS 4× sample buffer supplemented with reducing agents (Invitrogen). Typically, 10-20 μg of total protein was loaded per lane on a 4%-12% NUPAGE Bis-Tris gradient gel (Invitrogen) and analyzed by standard immunoblotting and imaged using Li—COR Odyssey CLx (LI-COR Biotechnology, Lincoln, NE). To access the protein degradation, the signal of target protein was normalized by the signal of ACBT and the signal of vehicle control was set as 100%. Primary antibodies used were: JAK1 (Cell Signaling #3332S), JAK2 (#3230S), JAK3 (#8827S), TYK2 (#9312S), GSPT1 (#14980S), CRBN (#71810S), IKZF1 (Santa Cruz Biotechnology, SC-398265) and ACBT (Santa Cruz Biotechnology, SC-47778).

MHH-CALL-4 cells = assay: Cytotoxicity assay (resazurin, 72 hours); parameters: AUC: unit not given beside the values; details: for EC50: MHHCALL4, resazurin; for AUC: area under the dose-response curve
Method: Cytotoxicity assay: MHH-CALL-4 cells were maintained in RPMI1640 medium (Invitrogen) supplemented with 10% FBS (Hyclone), Penicillin/Streptomycin (100 units/mL) and Glutamine (100 μM). 2×10^5 cells were seeded in 100 μl medium/well in 96 well assay plates (Corning 3603). Assays were performed in triplicate; compounds to be screened were added to assay plates from DMSO stock solutions by pin transfer using 50SS pins (V&P Scientific). The assay plates incubated at 37° C. in 5% CO2 for 72 hours. Cells were then incubated for four hours with resazurin (Sigma) solution and read on a Synergy HT plate reader (Biotek, Winooski, VT). High-throughput assay data was analyzed using our in-house Robust Interpretation of Screening Experiments (RISE) application written in Pipeline Pilot (Biovia, v. 17.2.0) and the R program (R Core Team, 2013). All the AUC (area under the dose-response curve) per compound calculated from its dose response curve by RISE protocol. Selected data were plotted and analyzed by GraphPad Prism software v7 using non-linear regression curve fitting.

JAK3 = target: T1, JAK3 (Homo sapiens, UniProt P52333); assay: Western blot assay, JAK3 protein degradation; details: MHHCALL4; 100 nM, 24 h; MHH-CALL-4 cells; vehicle control = 100%; read-out: Target Protein Degradation (% remaining at 100 nM, 24 h) JAK3
T1 construct: endogenous in cells; host or cells: MHH-CALL-4
T1 sequence (P52333 1-1124): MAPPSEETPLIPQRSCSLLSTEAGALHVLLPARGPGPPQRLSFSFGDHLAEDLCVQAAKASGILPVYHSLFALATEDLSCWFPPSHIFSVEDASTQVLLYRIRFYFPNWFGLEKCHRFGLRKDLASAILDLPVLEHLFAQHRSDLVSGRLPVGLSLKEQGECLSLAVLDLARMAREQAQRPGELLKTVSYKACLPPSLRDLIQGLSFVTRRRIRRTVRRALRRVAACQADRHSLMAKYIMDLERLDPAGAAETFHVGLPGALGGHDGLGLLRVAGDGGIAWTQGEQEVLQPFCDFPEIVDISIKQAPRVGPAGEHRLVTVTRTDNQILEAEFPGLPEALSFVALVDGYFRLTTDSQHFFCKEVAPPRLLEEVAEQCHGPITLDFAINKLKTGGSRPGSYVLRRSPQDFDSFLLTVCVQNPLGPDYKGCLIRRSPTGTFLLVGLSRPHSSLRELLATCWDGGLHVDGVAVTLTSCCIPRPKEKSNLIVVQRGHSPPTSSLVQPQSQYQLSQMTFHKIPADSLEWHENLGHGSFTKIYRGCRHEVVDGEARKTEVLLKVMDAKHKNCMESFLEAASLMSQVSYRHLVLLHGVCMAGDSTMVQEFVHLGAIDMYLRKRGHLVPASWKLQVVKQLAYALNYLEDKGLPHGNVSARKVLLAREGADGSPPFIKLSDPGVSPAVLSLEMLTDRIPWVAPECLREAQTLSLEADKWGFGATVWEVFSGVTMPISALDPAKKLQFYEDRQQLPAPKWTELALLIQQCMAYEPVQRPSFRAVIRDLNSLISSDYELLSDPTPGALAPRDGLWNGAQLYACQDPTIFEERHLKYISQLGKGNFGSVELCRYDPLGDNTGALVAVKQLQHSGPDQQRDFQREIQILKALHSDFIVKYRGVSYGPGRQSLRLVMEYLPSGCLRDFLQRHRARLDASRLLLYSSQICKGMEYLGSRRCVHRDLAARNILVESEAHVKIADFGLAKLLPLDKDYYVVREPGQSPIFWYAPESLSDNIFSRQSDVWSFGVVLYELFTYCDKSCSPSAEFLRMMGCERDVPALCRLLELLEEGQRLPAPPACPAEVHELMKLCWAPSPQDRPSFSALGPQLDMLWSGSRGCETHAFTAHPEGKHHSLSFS
Method: as §1

JAK1 = target: T2, JAK1 (Homo sapiens, UniProt P23458); assay: Western blot assay, JAK1 protein degradation; details: MHH-CALL-4 cells, vehicle control = 100%
T2 construct: endogenous in cells; host or cells: MHH-CALL-4
Method: as §1

GSPT1 = target: T3, GSPT1 (Homo sapiens, UniProt P15170); assay: Western blot assay, GSPT1 neosubstrate degradation; details: MHHCALL4; 100 nM, 24 h; MHH-CALL-4 cells; vehicle control = 100%
T3 construct: endogenous in cells; host or cells: MHH-CALL-4
Method: as §1

T3 sequence (P15170 whole entry): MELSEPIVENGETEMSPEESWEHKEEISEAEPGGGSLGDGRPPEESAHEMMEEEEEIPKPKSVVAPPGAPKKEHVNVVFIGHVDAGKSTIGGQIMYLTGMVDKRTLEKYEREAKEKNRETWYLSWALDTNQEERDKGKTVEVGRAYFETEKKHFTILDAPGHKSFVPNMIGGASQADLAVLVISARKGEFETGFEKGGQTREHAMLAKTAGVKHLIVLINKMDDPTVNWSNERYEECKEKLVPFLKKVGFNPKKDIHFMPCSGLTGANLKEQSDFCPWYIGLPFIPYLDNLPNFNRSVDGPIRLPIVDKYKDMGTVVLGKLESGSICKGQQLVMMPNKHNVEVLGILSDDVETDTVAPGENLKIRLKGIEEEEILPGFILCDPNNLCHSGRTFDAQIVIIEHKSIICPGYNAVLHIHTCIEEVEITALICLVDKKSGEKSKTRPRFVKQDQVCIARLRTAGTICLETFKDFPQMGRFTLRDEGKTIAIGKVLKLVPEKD
T2 sequence (P23458 whole entry): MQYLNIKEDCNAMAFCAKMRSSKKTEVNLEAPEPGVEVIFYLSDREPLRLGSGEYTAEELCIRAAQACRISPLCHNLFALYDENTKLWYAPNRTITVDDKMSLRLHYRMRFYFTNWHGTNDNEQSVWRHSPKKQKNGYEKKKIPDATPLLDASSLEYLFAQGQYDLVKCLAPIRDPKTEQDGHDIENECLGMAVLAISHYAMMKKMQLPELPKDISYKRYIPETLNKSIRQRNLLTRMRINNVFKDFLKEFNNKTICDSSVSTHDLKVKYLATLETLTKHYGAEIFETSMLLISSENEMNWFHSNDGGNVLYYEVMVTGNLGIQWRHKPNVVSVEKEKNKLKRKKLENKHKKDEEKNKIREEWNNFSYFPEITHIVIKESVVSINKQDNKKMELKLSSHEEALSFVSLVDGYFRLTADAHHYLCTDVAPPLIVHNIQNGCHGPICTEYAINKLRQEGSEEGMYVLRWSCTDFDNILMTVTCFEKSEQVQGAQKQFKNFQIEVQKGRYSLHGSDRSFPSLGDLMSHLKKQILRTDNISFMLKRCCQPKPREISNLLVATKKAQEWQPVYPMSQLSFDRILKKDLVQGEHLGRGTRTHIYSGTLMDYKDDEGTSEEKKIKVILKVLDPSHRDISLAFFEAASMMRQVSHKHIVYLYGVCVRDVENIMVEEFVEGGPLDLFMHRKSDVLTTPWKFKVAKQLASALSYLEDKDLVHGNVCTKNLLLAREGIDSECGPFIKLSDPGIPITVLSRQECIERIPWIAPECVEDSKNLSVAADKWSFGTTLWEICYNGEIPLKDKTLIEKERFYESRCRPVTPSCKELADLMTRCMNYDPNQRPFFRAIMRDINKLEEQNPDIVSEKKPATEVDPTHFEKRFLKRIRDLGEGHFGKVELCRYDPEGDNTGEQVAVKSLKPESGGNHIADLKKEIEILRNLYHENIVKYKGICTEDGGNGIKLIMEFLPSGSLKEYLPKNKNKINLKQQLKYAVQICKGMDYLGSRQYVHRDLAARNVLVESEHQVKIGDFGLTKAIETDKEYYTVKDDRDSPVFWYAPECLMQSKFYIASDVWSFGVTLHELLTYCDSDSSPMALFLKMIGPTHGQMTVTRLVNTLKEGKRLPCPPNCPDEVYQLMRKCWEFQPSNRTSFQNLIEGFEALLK

SMILES | Target Protein Degradation (% remaining at 100 nM, 24 h) JAK2 (JAK2) [% remaining] | EC50 (MHH-CALL-4 cells) [nM] | AUC (MHH-CALL-4 cells) | remaining activity at 0.1 µM (JAK3) [%] | Target Protein Degradation (% remaining at 100 nM, 24 h) JAK1 (JAK1) [% remaining] | remaining activity at 0.1 µM (GSPT1) [%]
CCS(=O)(=O)N1CC(CC#N)(n2cc(-c3nc(Nc4ccc(C(=O)NCCCCCCNc5ccc(C6CCC(=O)NC6=O)cc5)cc4)nc4[nH]ccc34)cn2)C1 (stereo not drawn) [Compound 1] | 34 | 0.8 | 231 | 37 | 128 | 84
CCS(=O)(=O)N1CC(CC#N)(n2cc(-c3nc(Nc4ccc(C(=O)NCCCCCCNc5cccc(C6CCC(=O)NC6=O)c5)cc4)nc4[nH]ccc34)cn2)C1 (stereo not drawn) [Compound 3] | 56 | 1.7 | 248 | 79 | 94 | 84
CCS(=O)(=O)N1CC(CC#N)(n2cc(-c3nc(Nc4ccc(C(=O)NCCCCNc5cccc(C6CCC(=O)NC6=O)c5)cc4)nc4[nH]ccc34)cn2)C1 (stereo not drawn) [Compound 4] | 30 | 2.1 | 120 | 44 | 17 | 124
CCS(=O)(=O)N1CC(CC#N)(n2cc(-c3nc(Nc4ccc(C(=O)NCCCCCNc5cccc(C6CCC(=O)NC6=O)c5)cc4)nc4[nH]ccc34)cn2)C1 (stereo not drawn) [Compound 6] | 37 | 5.9 | 136 | 54 | 44 | 
CCS(=O)(=O)N1CC(CC#N)(n2cc(-c3nc(Nc4ccc(C(=O)NCCCCCNc5ccc(C6CCC(=O)NC6=O)cc5)cc4)nc4[nH]ccc34)cn2)C1 (stereo not drawn) [Compound 7] | 29 | 13.9 | 248 | 50 | 78 | 63
CCS(=O)(=O)N1CC(CC#N)(n2cc(-c3nc(Nc4ccc(C(=O)NCCOCCOc5ccc(C6CCC(=O)NC6=O)cc5)cc4)nc4[nH]ccc34)cn2)C1 (stereo not drawn) [Compound 11] | 90 | > 10000 |  | 70 | 110 | 130
CCS(=O)(=O)N1CC(CC#N)(n2cc(-c3nc(Nc4ccc(C(=O)NCCCCN5CCN(c6ccc(C7CCC(=O)NC7=O)cc6)CC5)cc4)nc4[nH]ccc34)cn2)C1 (stereo not drawn) [Compound 19] | 34 | 1450 | 225 | 112 | 87 | 129
CCS(=O)(=O)N1CC(CC#N)(n2cc(-c3nc(Nc4ccc(C(=O)NCCCCN5CCN(c6ccc7c(c6)C(=O)N(C6CCC(=O)NC6=O)C7=O)CC5)cc4)nc4[nH]ccc34)cn2)C1 (stereo not drawn) [Compound 20] | 40 | 13.6 | 123 | 102 | 138 | 128
N#CC[C@H](C1CCCC1)n1cc(-c2nc(Nc3ccc(C(=O)NCCN4CCN(c5ccc6c(c5)C(=O)N(C5CCC(=O)NC5=O)C6=O)CC4)cc3)nc3[nH]ccc23)cn1 (stereo partly drawn) [Compound 22] | 36 | 18.1 | 141 | 61 | 72 | 103
N#CC[C@H](C1CCCC1)n1cc(-c2nc(Nc3ccc(C(=O)NCCCN4CCN(c5ccc(C6CCC(=O)NC6=O)cc5)CC4)cc3)nc3[nH]ccc23)cn1 (stereo partly drawn) [Compound 38, 4-((4-(1-((R)-2-cyano-1-cyclopentylethyl)-1H-pyrazol-4-yl)-7H-pyrrolo[2,3-d]pyrimidin-2-yl)amino)-N-(3-(4-(4-(2,6-dioxopiperidin-3-yl)phenyl)piperazin-1-yl)propyl)benzamide] | 48 | 2.6 | 122 | 41 |  | 99
CCCn1cc(-c2nc(Nc3ccc(C(=O)NCCCCOc4ccc(C5CCC(=O)NC5=O)cc4)cc3)nc3[nH]ccc23)cn1 (stereo not drawn) [Compound 43, N-(4-(4-(2,6-dioxopiperidin-3-yl)phenoxy)butyl)-4-((4-(1-propyl-1H-pyrazol-4-yl)-7H-pyrrolo[2,3-d]pyrimidin-2-yl)amino)benzamide] | 76 |  |  | 79 | 123 | 37
CCCn1cc(-c2nc(Nc3ccc(C(=O)NCCCN4CCN(c5ccc(C6CCC(=O)NC6=O)cc5)CC4)cc3)nc3[nH]ccc23)cn1 (stereo not drawn) [Compound 44, N-(3-(4-(4-(2,6-dioxopiperidin-3-yl)phenyl)piperazin-1-yl)propyl)-4-((4-(1-propyl-JH-pyrazol-4-yl)-7H-pyrrolo[2,3-d]pyrimidin-2-yl)amino)benzamide] | 64 |  |  | 74 | 104 | 81
CCS(=O)(=O)N1CC(CC#N)(n2cc(-c3nc(Nc4ccc(C(=O)NCC5CCN(c6ccc(C7CCC(=O)NC7=O)cc6)CC5)cc4)nc4[nH]ccc34)cn2)C1 (stereo not drawn) [Compound 45, 4-((4-(1-(3-(cyanomethyl)-1-(ethylsulfonyl)azetidin-3-yl)-1H-pyrazol-4-yl)-7H-pyrrolo[2,3-d]pyrimidin-2-yl)amino)-N-((1-(4-(2,6-dioxopiperidin-3-yl)phenyl)piperidin-4-yl)methyl)benzamide] | 21 |  |  | 29 | 107 | 101
